ChEMBL document CHEMBL6177964 (Eur J Med Chem, 2025)
Activity calls are given as the source filed them. No cut-off for these calls is given here. Residues, ends and D or L forms follow the SMILES beside them.

Legend:
[1] = biological target: T1, Angiotensin-converting enzyme (Homo sapiens, UniProt P12821); experiment: Inhibition of ACE (unknown origin)
[2] = biological target: T1, Angiotensin-converting enzyme; experiment: Inhibition of ACE (unknown origin) preincubated with compound for 5 mins and measured after 60 mins
[3] = biological target: T1, Angiotensin-converting enzyme; experiment: Binding affinity to ACE (unknown origin) assessed as change in entropy (-TdeltaS) at 800 to 1400 nM by isothermal titration calorimetric analysis; settings: dose 800-1400 nM
[4] = biological target: T1, Angiotensin-converting enzyme; experiment: Binding affinity to ACE (unknown origin) assessed as change in enthalpy at 800 to 1400 nM by isothermal titration calorimetric analysis; settings: dose 800-1400 nM
[5] = biological target: T1, Angiotensin-converting enzyme; experiment: Binding affinity to ACE (unknown origin) assessed as change in entropy (deltaS) at 800 to 1400 nM by isothermal titration calorimetric analysis; settings: dose 800-1400 nM
[6] = biological target: T1, Angiotensin-converting enzyme; experiment: Binding affinity to ACE (unknown origin) measured within 14 mins
[7] = tested on: Rattus norvegicus; experiment: Acute antihypertensive activity in spontaneously hypertensive male Wistar Kyoto rat assessed as reduction in systolic blood pressure at 5 mg/kg administered via gavage measured after 2 hrs by tail-artery manometry; assay type: functional
[8] = tested on: Rattus norvegicus; experiment: Acute antihypertensive activity in spontaneously hypertensive male Wistar Kyoto rat assessed as reduction in diastolic blood pressure at 5 mg/kg administered via gavage measured after 2 hrs by tail-artery manometry; assay type: functional
[9] = tested on: Rattus norvegicus; experiment: Subacute antihypertensive activity in spontaneously hypertensive male Wistar Kyoto rat assessed as reduction in systolic blood pressure at 2.5 mg/kg administered via gavage for 4 weeks and measured at 22 hrs post dose by tail-artery manometry; assay type: functional
[10] = tested on: Rattus norvegicus; experiment: Subacute antihypertensive activity in spontaneously hypertensive male Wistar Kyoto rat assessed as reduction in diastolic blood pressure at 2.5 mg/kg administered via gavage for 4 weeks and measured at 22 hrs post dose by tail-artery manometry; assay type: functional
[11] = tested on: Rattus norvegicus; experiment: Effect on spontaneously hypertensive male Wistar Kyoto rat assessed as reduction in serum ACE activity by measuring hippuric acid level at 2.5 mg/kg administered via gavage for 4 weeks by RP-HPLC analysis; assay type: functional, organism-based
[12] = tested on: Rattus norvegicus; experiment: Effect on spontaneously hypertensive male Wistar Kyoto rat assessed as reduction in Ang II level in serum at 2.5 mg/kg administered via gavage for 4 weeks by ELISA; assay type: functional, organism-based
[13] = tested on: Rattus norvegicus; experiment: Antihypertensive activity in spontaneously […] male Wistar Kyoto rat assessed as increase in fecal acetic acid level at 5 mg/kg administered via gavage for 4 weeks and measured at 22 hrs post dose by RP-HPLC analysis relative to control; assay type: functional
[14] = tested on: Rattus norvegicus; experiment: Antihypertensive activity in spontaneously […] male Wistar Kyoto rat assessed as increase in fecal propionic acid level at 5 mg/kg administered via gavage for 4 weeks and measured at 22 hrs post dose by RP-HPLC analysis relative to control; assay type: functional
[15] = tested on: Rattus norvegicus; experiment: Antihypertensive activity in spontaneously […] male Wistar Kyoto rat assessed as increase in fecal butyric acid level at 5 mg/kg administered via gavage for 4 weeks and measured at 22 hrs post dose by RP-HPLC analysis relative to control; assay type: functional
[16] = species on record: Rattus norvegicus; experiment: Prevention of gut microbiota dysbiosis in spontaneously hypertensive male Wistar Kyoto rat model assessed as increase in bacteroidetes abundance; assay type: functional, organism-based
[17] = species on record: Rattus norvegicus; experiment: Prevention of gut microbiota dysbiosis in spontaneously hypertensive male Wistar Kyoto rat model assessed as decrease in epsilonbacteraeota abundance; assay type: functional, organism-based
[18] = species on record: Rattus norvegicus; experiment: Prevention of gut microbiota dysbiosis in spontaneously hypertensive male Wistar Kyoto rat model assessed as increase in enterobacteriaceae abundance relative to control; assay type: functional
[19] = species on record: Rattus norvegicus; experiment: Prevention of gut microbiota dysbiosis in spontaneously hypertensive male Wistar Kyoto rat model assessed as increase in roseburia abundance; assay type: functional, organism-based

T1 sequence (P12821 whole entry): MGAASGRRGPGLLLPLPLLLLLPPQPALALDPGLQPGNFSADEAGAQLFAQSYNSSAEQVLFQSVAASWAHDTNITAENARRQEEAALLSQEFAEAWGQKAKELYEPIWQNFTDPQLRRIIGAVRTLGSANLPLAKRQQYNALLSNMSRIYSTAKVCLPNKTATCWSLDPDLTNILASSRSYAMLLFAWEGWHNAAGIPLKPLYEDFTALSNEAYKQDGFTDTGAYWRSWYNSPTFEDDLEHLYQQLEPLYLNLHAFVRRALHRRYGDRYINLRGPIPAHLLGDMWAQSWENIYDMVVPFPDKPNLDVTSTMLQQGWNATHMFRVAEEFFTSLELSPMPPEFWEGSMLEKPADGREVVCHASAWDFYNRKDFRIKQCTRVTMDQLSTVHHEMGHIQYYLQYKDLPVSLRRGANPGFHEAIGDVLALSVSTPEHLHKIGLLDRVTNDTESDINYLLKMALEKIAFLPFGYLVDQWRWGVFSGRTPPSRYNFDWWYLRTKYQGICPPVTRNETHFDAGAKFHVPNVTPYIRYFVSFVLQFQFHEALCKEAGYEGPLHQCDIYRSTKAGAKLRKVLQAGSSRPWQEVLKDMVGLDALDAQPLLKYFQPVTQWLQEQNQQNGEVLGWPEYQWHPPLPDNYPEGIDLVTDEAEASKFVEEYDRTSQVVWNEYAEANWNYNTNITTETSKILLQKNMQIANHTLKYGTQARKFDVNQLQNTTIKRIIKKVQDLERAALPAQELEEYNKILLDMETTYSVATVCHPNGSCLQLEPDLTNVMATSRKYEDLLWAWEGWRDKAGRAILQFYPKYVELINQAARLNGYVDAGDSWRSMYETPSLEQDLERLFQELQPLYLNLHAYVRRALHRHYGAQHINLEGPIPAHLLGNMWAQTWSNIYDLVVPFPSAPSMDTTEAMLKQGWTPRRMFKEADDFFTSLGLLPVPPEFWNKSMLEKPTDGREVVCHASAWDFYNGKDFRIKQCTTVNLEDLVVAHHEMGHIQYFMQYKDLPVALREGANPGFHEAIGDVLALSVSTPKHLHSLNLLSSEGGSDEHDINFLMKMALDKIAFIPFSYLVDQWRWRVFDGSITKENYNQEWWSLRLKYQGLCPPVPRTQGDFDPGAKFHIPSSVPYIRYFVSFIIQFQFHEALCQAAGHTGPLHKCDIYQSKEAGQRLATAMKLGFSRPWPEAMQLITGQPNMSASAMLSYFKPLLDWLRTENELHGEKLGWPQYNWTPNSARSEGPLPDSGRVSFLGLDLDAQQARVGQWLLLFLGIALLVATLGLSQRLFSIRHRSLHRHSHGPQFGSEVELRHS

CC(C)C[C@H](NC(=O)[C@H](Cc1c[nH]c2ccccc12)NC(=O)[C@@H](N)CCCCN)C(=O)N1CCC[C@H]1C(=O)O (H-KWLP-OH) was tested, and the IC50 [1] was 0.005 mM.
For C[C@H](NC(=O)[C@@H](N)CCCCN)C(=O)N[C@@H](CCCCN)C(=O)N[C@@H](Cc1ccccc1)C(=O)O (H-KAKF-OH), the IC50 [2] was 0.0125 mM.
CC[C@H](C)[C@H](NC(=O)[C@H](CCCCN)NC(=O)[C@H](C)NC(=O)[C@@H](N)CCCCN)C(=O)O (H-KAKI-OH) was tested, and the IC50 [2] was 6.89 mM.
C[C@H](NC(=O)[C@@H](N)CCCCN)C(=O)N[C@@H](CCCCN)C(=O)O (H-Lys-Ala-Lys-OH) gave an IC50 [2] of 1.86 mM.
Work on NCC(=O)N[C@@H](CCC(=O)O)C(=O)N1CCC[C@H]1C(=O)N[C@@H](Cc1ccccc1)C(=O)O (H-GEPF-OH) yielded an IC50 [2] of 0.0361 mM.
For CC(C)C[C@H](NC(=O)[C@H](CCCCN)NC(=O)[C@H](C)NC(=O)[C@@H](N)CCCCN)C(=O)O (H-KAKL-OH), the IC50 [2] was 2.62 mM.
In the case of NCCCC[C@H](N[C@@H](CCc1ccccc1)C(=O)O)C(=O)N1CCC[C@H]1C(=O)O [LISINOPRIL ANHYDROUS], the -TdeltaS [3] is reported as -7.21 kcal/mol, the deltaH [4] is reported as -3.21 kcal/mol and the deltaS [5] is reported as 24.2 cal/mol.K. For the same molecule, the Activity [6] was “Active”, the Activity [7] was 33 mmHg and the Activity [8] was 28 mmHg. The Activity [9] was 39 mmHg, the Activity [10] was 32 mmHg and the Activity [11] was “Active”. The Activity [12] was “Active”, the Activity [13] was “inactive” and the Activity [14] was “inactive”. For the same molecule, the Activity [15] was “inactive”, the Activity [16] was “Active” and the Activity [17] was “Active”. For the same molecule, the Activity [18] was 76% and the Activity [19] was “inactive”.
With N=C(N)NCCC[C@H](NC(=O)[C@@H]1CCCN1C(=O)[C@H](CC(N)=O)NC(=O)CN)C(=O)O (H-GNPR-OH) the IC50 [2] was 3.05 mM.
C[C@H](NC(=O)[C@H](CCCCN)NC(=O)[C@H](C)NC(=O)[C@@H](N)CCCCN)C(=O)O (H-KAKA-OH) gave an IC50 [2] of 0.667 mM.
